Assay [1] has as its target T1, aurora-2 kinase (Homo sapiens, UniProt O14965).
T1 construct: purchased Imgenex, San Diego, Calif; host or cells: sf9 cells
T1 sequence (O14965 1-403): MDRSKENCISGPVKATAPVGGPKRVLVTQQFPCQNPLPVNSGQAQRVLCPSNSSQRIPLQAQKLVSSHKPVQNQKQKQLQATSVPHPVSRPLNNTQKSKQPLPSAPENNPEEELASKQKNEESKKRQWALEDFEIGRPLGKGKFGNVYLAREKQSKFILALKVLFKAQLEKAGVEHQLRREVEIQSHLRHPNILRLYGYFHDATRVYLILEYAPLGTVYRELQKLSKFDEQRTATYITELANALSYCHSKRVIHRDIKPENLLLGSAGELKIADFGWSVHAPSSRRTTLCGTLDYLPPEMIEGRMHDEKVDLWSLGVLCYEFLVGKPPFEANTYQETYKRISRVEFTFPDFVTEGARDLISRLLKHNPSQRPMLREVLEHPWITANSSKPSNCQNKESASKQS
The assay can be described thus: Aurora-2 kinase inhibition assay (Kinase-Glo). The note with it: aurora-2 kinase, FIG. 11. Type of assay: biochemical. As for the experimental part: In this assay kinase activity is determined by quantifying the amount of ATP remaining in solution following the kinase reaction by measuring the light units (LU) produced by luciferase using a luminometer. Percent inhibition was determined for individual compounds by comparing luminometer readings of drug-treated reactions to controls containing no drug (DMSO control) and no Aurora-2 enzyme (ATP control) in the following equation: […]
In a 50 μl reaction, recombinant aurora-2 kinase produced in sf9 cells (Imgenex, San Diego, Calif.) was incubated at 30° C. for two hours with 62.5 μM Kemptide (Calbiochem, San Diego, Calif.), 3 μM ATP (Invitrogen, Carlsbad, Calif.) and kinase reaction buffer (40 mM Tris-HCl, 10 mM MgCl2 and 0.1 μg/μl bovine serum albumin (BSA)). This reaction was carried out in the presence of drug substances, which had been previously diluted to desired concentrations in DMSO. After incubation, 50 μl of Kinase-Glo® (Promega, Inc., Madison, Wis.) solution was added to each reaction mixture and allowed to equilibrate for 10 minutes at room temperature. Kinase-Glo solution contains luciferase enzyme and luciferin, which react with ATP to produce light. Kinase activity is determined by quantifying the amount of ATP remaining in solution following the kinase reaction by measuring the light units (LU) produced by luciferase using a luminometer (PerkinElmer, Boston, Mass.).
In general terms: Kinase-Glo reads ATP consumption through a luciferase reaction.

In assay [2] the test system is GIST882 cell line. The assay can be described thus: Cancer cell cytotoxicity assay (sulforhodamine B). Type of assay: cell-based. The note with it: for IC50: Homo sapiens, 96 h, GIST882, 4 days, read-out: IC50 c-kit GIST882. As for the experimental part:
To validate the hypothesis that the designed c-kit/PDGFR tyrosine kinase inhibitors mediate GIST882 cell killing and PDGFR-mediated cell killing of pancreatic cancer cell lines (CFPAC-1, PANC-1 and MIA PaCa-2), an in vitro cytotoxicity assay was performed. The GIST882 cell line used in this study has a c-kit gain-of-function mutation (K642E). […] First the cells were cultured. GIST882 cells were provided by Dr. Jonathan A. Fletcher (Dana-Farber Cancer Institute, Boston, Mass.). PANC-1 and MIAPaCa-2 cells were provided by Dr. Daniel Von Hoff (Arizona Cancer Center, Tucson, Ariz.). […] All the cell lines were incubated in a humidified incubator at 37° C. with 5% CO2 atmosphere.
(§1) After incubation for 4 days at 37° C. in a humidified incubator, the cells were fixed with 10% Trichloroacetic acid solution (Catalog No. 490-10, Sigma). Subsequently, they were labeled with 0.04% Sulforhodamine B (S9012, Sigma) in 1% acetic acid. After multiple washes to remove excess dye, 100 μl of 50 mM Tris solution was added to each well in order to dissolve the dye. The absorbance of each well was read on a plate reader (Wallac Vector^2, PerkinElmer) at the wavelength of 570 nm. Data were expressed as the percentage of survival of control calculated from the absorbance corrected for background absorbance. The surviving percent of cells was determined by dividing the mean absorbance values of the […] by the mean absorbance values of the control and multiplying by 100.

Assay [3] concerns MIAPaCa-2 cells. The assay can be described thus: Cancer cell cytotoxicity assay (sulforhodamine B). Type of assay: cell-based. The note with it: Homo sapiens, MIA PaCa-2, 96 h; MIAPaCa-2, 4 days; read-out: IC50 PDGFR MIAPaCa. As for the experimental part:
(§2) To validate the hypothesis that the designed c-kit/PDGFR tyrosine kinase inhibitors mediate GIST882 cell killing and PDGFR-mediated cell killing of pancreatic cancer cell lines (CFPAC-1, PANC-1 and MIA PaCa-2), an in vitro cytotoxicity assay was performed. The GIST882 cell line used in this study has a c-kit gain-of-function mutation (K642E). The assay utilized the Cell Titer 965 Non-Radioactive Cell Proliferation Assay (Promega Corp., Madison, Wis.). First the cells were cultured. GIST882 cells were provided by Dr. Jonathan A. Fletcher (Dana-Farber Cancer Institute, Boston, Mass.). PANC-1 and MIAPaCa-2 cells were provided by Dr. Daniel Von Hoff (Arizona Cancer Center, Tucson, Ariz.). GIST882 cells were cultured in RPMI 1640 medium (Cat #21870-076, Invitrogen Corporation) supplemented with 300 mg/L L-glutamine, 100 unit/ml penicillin, 100 μg/ml streptomycin and 15% fetal bovine serum. PANC-1 and MIAPaCa-2 cells were maintained in RPMI 1640 medium (cat #10-040, Mediatech, Inc.) supplemented with 100 unit/ml penicillin, 100 μg/ml streptomycin and 10% fetal bovine serum. All the cell lines were incubated in a humidified incubator at 37° C. with 5% CO2 atmosphere.
as §1, with “Cells were plated at a density of 2000 to 10000 cells per well, depending on their growth rate, in 0.1 mL medium on day 0 in 96-well Falcon microtiter plates (#3072, Becton-Dickinson Labware, Lincoln Park, N.J.). On day 1, 10 μL of serial dilutions of the individual compounds were added to the plates in replicates of 4. After incubation” for “After incubation”

Assay [4] relates to PANC-1 cells. In words: Cancer cell cytotoxicity assay (sulforhodamine B). Type of assay: cell-based. The note with it: Homo sapiens, 96 h; PANC-1, 4 days; read-out: IC50 PDGFR PANC-1. As for the experimental part:
as §2
as §1, with “Cells were plated at a density of 2000 to 10000 cells per well, depending on their growth rate, in 0.1 mL medium on day 0 in 96-well Falcon microtiter plates (#3072, Becton-Dickinson Labware, Lincoln Park, N.J.). On day 1, 10 μL of serial dilutions of the individual compounds were added to the plates in replicates of 4. After incubation” for “After incubation”

Assay [5] deals with GIST882 cell line. In words: GIST882 cell growth assay (Cell-Titer-Glo). The class given is cell-based. The note with it: Homo sapiens; GIST882, 96 hours. As for the experimental part:
(§3) Briefly, cells are seeded into 96-well, tissue-culture treated, opaque white plates (Thermo Electron, Vantaa, Finland), at between 5000 and 7500 cells per well, depending on the speed of cell proliferation, in 100 μl of appropriate growth medium (determined by the ATCC). Cells are then exposed to the appropriate concentration of drug or an equal amount of DMSO (drug diluent) and allowed to grow in its presence for 96 hours. Following this, 100 μl of Cell-Titer-Glo reagent (Promega, Inc., Madison, Wis.) is added to each well. Plates are then shaken for 2 minutes at room temperature to allow for cell lysis and incubated for 10 minutes to stabilize the luminescent signal. Similar to the Kinase-Glo assay reagent, this reagent contains both luciferase enzyme and its substrate luciferin. Luciferase, activated by ATP in the cell lysate, catalyzes the conversion of luciferin to oxyluciferin, a reaction which produces light. The amount of light produced is proportionate to the amount of ATP in the cell lysate, which is itself proportional to cell number and gives an index of cellular proliferation.
as §3, with “Various compounds of the invention, including (IV-1-3) (also referred to as HPK16), (III-1-3) (also referred to as HPK56), (III-1-4) (also referred to as HPK57), (III-1-5) (also referred to as HPK59), and (II-2-7) (also referred to as HPK61) were tested for activity against GIST tumor cells using the GIST882 cell line. Briefly,” for “Briefly,”

The subject of assay [6] is metastatic GISTs. The note with it: 400 mg or 600 mg per day, patients assessed at 1-3 months; cited from earlier work.
Assay [7] relates to c-Met autophosphorylation in NIH 3T3 cells. The assay can be described thus: Immunoblot for phospho-Met. The class given is cell-based. The note with it: NIH 3T3, 4 hours, agent alone. As for the experimental part: (§4) MP-470 (Compound III-1-3) has inhibitory effects on a number of receptor tyrosine kinases. In order to evaluate these effects at the cellular level, immunoblot analysis was performed on lysates from cells treated with MP470, with or without the addition of the EGFR inhibitor Tarceva®. Lysates were assayed for general tyrosine kinase activity, as well as the specific phosphorylation of c-Met and Akt. Briefly, NIH 3T3 cells were pretreated with drugs as indicated for 4 hours, then treated with pervanadate for a further 30 minutes. Immunoblot detection was carried out with antibodies for phosphotyrosine, phospho-Met and phospho-Akt (S473), as well as total c-Met and Akt. Beta-actin was used as a loading control.

For assay [8], the system named is Akt phosphorylation in NIH 3T3 cells. In words: Immunoblot for phospho-Akt (S473). The class given is cell-based. The note with it: NIH 3T3, 4 hours, agent alone. As for the experimental part: as §4, with “In” for “MP-470 (Compound III-1-3) has inhibitory effects on a number of receptor tyrosine kinases. In”
The subject of assay [9] is Akt phosphorylation in LNCaP prostate carcinoma cells. The assay can be described thus: Immunoblot for phospho-Akt (S473). The note with it: 48 hours, agent alone. The class given is cell-based. As for the experimental part:
LNCaP prostate carcinoma cells were treated with MP-470, in combinations with Tarceva® and Gleevec®, for 48 hours. Following incubation, cells were lysed and total protein subjected to immunoblot analysis for total Akt and phospho-Akt (S473).
On the technique in general: A western blot detects proteins with antibodies after separation by electrophoresis.

Here are results for six molecules from patent US8552018B2, “Substituted tricyclic compounds as protein kinase inhibitors” (Arizona Board of Regents on behalf of the University of …, priority 2003, dated 2013).

For the molecule `COc1cc2ncnc(Nc3ncc(NC(=S)NCc4ccc5c(c4)OCO5)cn3)c2cc1OC` [AKS110, 1-Benzo[1,3]dioxol-5-yl methyl-3-[2-(6,7-dimethoxy-quinazolin-4ylamino)-pyrimidin-5yl]-thiourea], in [1], the midpoint of inhibition, the IC50, lay at 36 µM.
For `S=C(NCc1ccc2c(c1)OCO2)N1CCN(c2ncnc3c2sc2ncccc23)CC1` [HPK57, 4-(9-Thia-1,5,7-triaza-fluoren-8-yl)-piperazine-1-carbothioic acid (benzo[1,3]dioxol-5-ylmethyl)-amide], the IC50 in [2] is 28 µM; in assay [3] it was greater than 50 µM; in [4] it was greater than 50 µM; in [5] it was 28 µM.
`O=S(=O)(Nc1ncccn1)c1ccc(NC(=S)N2CCN(c3ncnc4c3oc3ccccc34)CC2)cc1` [HPK59, 4-Benzo[4,5]furo[3,2-d]pyrimidin-4-yl-piperazine-1-carbothioic acid [4-(pyrimidin-2-ylsulfamoyl)-phenyl]-amide]: the IC50 in assay [2] and in assay [5] was 27.5 µM throughout.
Take `O=S(=O)(Nc1ncccn1)c1ccc(NC(=S)N2CCN(c3ncnc4c3sc3ncccc34)CC2)cc1` [HPK60, 4-(9-Thia-1,5,7-triaza-fluoren-8-yl)-piperazine-1-carbothioic acid [4-(pyrimidin-2-ylsulfamoyl)-phenyl]-amide]: the IC50 in assay [2] was 50 µM; in [3], greater than 50 µM; in [4] it was greater than 50 µM; in [5], 50 µM.
As to `Cc1ccc(NC(=O)c2ccc(CN3CCN(C)CC3)cc2)cc1Nc1nccc(-c2cccnc2)n1` [STI571], in assay [2] (GIST882, day 4), the “cells alive at day 4” value is 25%. Also, in assay [6], the partial response is reported as 54%, the progressive disease is reported as 12% and the stable disease is given as 34%.
In the case of `C#Cc1cccc(Nc2ncnc3cc(OCCOC)c(OCCOC)cc23)c1` [Tarceva®, reference compound], the “activating autophosphorylation of c-Met” value in assay [7] is “Neither of these effects was observed”. The results for the “phosphorylation of Akt” value in assay [8] and in assay [9] were “Neither of these effects was observed” and “did not appear to have an effect”, respectively.

One may read the IC50 as the midpoint of a concentration-inhibition curve.
